This note sets out measurements from patent US20220073536A1 (Rigel Pharmaceuticals, Inc., priority 2003, published 2022).

“And” between values parts separate entries of the source, which are not always exact repeats. Equal values may be shown once.

For series [1], the system named is cultured human mast cells (CHMC). As to the kind of experiment: CHMC low cell density IgE activation: tryptase assay. The format is cell-based. Particulars: Homo sapiens, Mast cell, IgE activation. The method, boiled down: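 Tryptase release was read from supernatant with a fluorogenic substrate (30 min, room temperature) after anti-IgE challenge of cultured human mast cells (1000–1500 cells/well, low density) for 30 minutes at 37° C.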

The test system is the same in series [2]. Briefly: CHMC low cell density ionomycin activation: tryptase assay. The format is cell-based. The following applies: Homo sapiens, Mast cell, 3 pt, read-out: LD Tryptase, CHMC, Iono, 3 pt.
Another series has as its target T1, Syk kinase (Homo sapiens, UniProt P43405).
T1 construct: purchased Upstate, Lake Placid N.Y
Briefly: Syk kinase biochemical fluorescence polarization assay. The following applies: isolated Syk kinase, 11 pt, read-out: fp_syk, 11 pt. The protocol:
Many of the 2,4-pyrimidinediamine compounds were tested for the ability to inhibit Syk kinase catalyzed phosphorylation of a peptide substrate in a biochemical fluorescenced polarization assay with isolated Syk kinase. In this experiment, Compounds were diluted to 1% DMSO in kinase buffer (20 mM HEPES, pH 7.4, 5 mM MgCl2, 2 mM MnCl2, 1 mM DTT, 0.1 mg/mL acetylated Bovine Gamma Globulin). Compound in 1% DMSO (0.2% DMSO final) was mixed with ATP/substrate solution at room temperature. Syk kinase (Upstate, Lake Placid N.Y.) was added to a final reaction volume of 20 uL, and the reaction was incubated for 30 minutes at room temperature. […] EDTA (10 mM final)/anti-phosphotyrosine antibody (1× final)/fluorescent phosphopeptide tracer (0.5× final) was added in FP Dilution Buffer to stop the reaction for a total volume of 40 uL according to manufacturer's instructions (PanVera Corporation) The plate was incubated for 30 minutes in the dark at room temperature. Plates were read on a Polarion fluorescence polarization plate reader (Tecan). Data were converted to amount of phosphopeptide present using a calibration curve generated by competition with the phosphopeptide competitor provided in the Tyrosine Kinase Assay Kit, Green (PanVera Corporation).
(Polarisation of emitted light reports the rotation of a fluorescent probe.)

The next series has as its system C57BL/6 mice. Briefly: Mouse cutaneous Reverse Passive Arthus (RPA) reaction, edema. The format is in vivo. An excerpt:
Immune complex (IC)-mediated acute inflammatory tissue injury is implicated in a variety of human autoimmune diseases, including vasculitis syndrome, sick serum syndrome, systemic lupus erythematosus (SLE), rheumatoid arthritis, Goodpasture's syndrome, and glomerulonephritis. The classical experimental model for IC-mediated tissue injury is the reverse passive Arthus reaction. The RPA reaction model is a convenient in vivo method to study localized inflammation, induced by ICs, without systemic effects. Intradermal injection of antibodies (Abs) specific to chicken egg albumin (rabbit anti-OVA IgG), followed by intravenous (IV) injection of antigens (Ags), specifically chicken egg albumin (ovalbumin, OVA), causes perivascular deposition of ICs and a rapid inflammatory response characterized by edema, neutrophil infiltration and hemorrhage at the injection sites. Aspects of the mouse RPA reaction model resemble the inflammatory response of patients with rheumatoid arthritis, SLE and glomerulonephritis.
(§1) In this model system, test compounds are administered at several timepoints prior to administration of Abs and Ags. A solution of rabbit anti-OVA IgG ([…] in 25 μl/mouse) is injected intradermally, and immediately following is an intravenous injection of chicken egg albumin (20 mg/kg of body weight) in a solution containing 1% Evans blue dye. The degree of edema and hemorrhage is measured in the dorsal skin of C57BL/6 mice using the Evan's Blue dye as an indicator of local tissue damage. Purified polyclonal rabbit IgG is used as a control.
Pretreatment time, in which the test compounds are administered prior to Ab/Ag challenge, depends on the pharmacokinetic (PK) properties of each individual compound. Four hours after induction of Arthus reaction, mice are euthanized, and tissues are harvested for assessment of edema. This model system allows us to rapidly screen the in vivo activity of many inhibitors.
(§2) All compounds tested were administered by the oral route.

The nature of series [3]: Plasma concentration in the mouse RPA reaction study. Type of series: in vivo. The following applies: pretreatment time 0.5 hrs. The method, then: as §1
Pretreatment time, in which the test compounds are administered prior to Ab/Ag challenge, depends on the pharmacokinetic (PK) properties of each individual compound. Four hours after induction of Arthus reaction, mice are euthanized, and tissues are harvested for assessment of edema.
as §2

The mark [4] stands for this setting: low cell density CHMC, tryptase release, 3 pt, read-out: LD Tryptase, CHMC, IgE, 3 pt.
Setting [5] is: low cell density CHMC, tryptase release, 8 pt, read-out: LD Tryptase, CHMC, IgE, 8 pt.
Setting [6] is: low cell density CHMC, tryptase release.
Where [7] appears, read: 0.1 mg/kg oral, pretreatment time 0.5 hrs.
[8] abbreviates: 0.5 mg/kg oral, pretreatment time 0.5 hrs.
Where [9] appears, read: 1 mg/kg oral, pretreatment time 0.5 hrs.
Setting [10] is: 5 mg/kg oral, pretreatment time 0.5 hrs.
The mark [11] stands for this setting: low cell density CHMC, tryptase, 3 pt, read-out: LD Tryptase, CHMC, IgE, 3 pt.
[12] abbreviates: low cell density CHMC, tryptase, 8 pt, read-out: LD Tryptase, CHMC, IgE, 8 pt.
[13] abbreviates: low cell density CHMC, tryptase.

For the molecule `COCCCn1ncc2cc(Nc3ncc(F)c(Nc4ccc(OC)c(Cl)c4)n3)ccc21` [Compound 792, N4-(3-Chloro-4-methoxyphenyl)-5-fluoro-N2-[1-(3-methoxypropyl)indazol-5-yl]-2,4-pyrimidinediamine], the IC50 is less than 10 µM in series [1] (setting [4]), less than 10 µM in series [1] (setting [5]), greater than 10 µM in series [2] (setting [6]) and less than 10 µM on Syk kinase.

As for `COc1ccc(Nc2nc(Nc3ccc4[nH]c(C(F)(F)F)nc4c3)ncc2F)cc1Cl` [Compound 800, N4-(3-Chloro-4-methoxyphenyl)-5-fluoro-N2-(2-trifluoromethyl-1H-benzimidazol-5-yl)-2,4-pyrimidinediamine], the IC50 (in series [1] (setting [4]); in series [1] (setting [5]); in series [2] (setting [6]); at Syk kinase) was less than 10 µM throughout.

On to `Fc1cnc(Nc2ccc3[nH]c(C(F)(F)F)nc3c2)nc1Nc1ccc(Cl)c(Cl)c1` [Compound 801, N4-(3,4-Dichlorophenyl)-5-fluoro-N2-(2-trifluoromethyl-1H-benzimidazol-5-yl)-2,4-pyrimidinediamine], for which the IC50 (in series [1] (setting [4]); in series [1] (setting [5]); in series [2] (setting [6]); on Syk kinase) was less than 10 µM each time.

In the case of `COc1ccc(Nc2nc(Nc3ccc4nc(C)[nH]c4c3)ncc2F)cc1Cl` [Compound 808, N4-(3-Chloro-4-methoxyphenyl)-5-fluoro-N2-(2-methyl-3H-benzimidazol-5-yl)-2,4-pyrimidinediamine], the IC50 was less than 10 µM in series [1] (setting [4]), less than 10 µM in series [1] (setting [5]), greater than 10 µM in series [2] (setting [6]) and less than 10 µM on Syk kinase.

As to `Cc1nc2ccc(Nc3ncc(F)c(Nc4ccc(Cl)c(Cl)c4)n3)cc2[nH]1` [Compound 809, N4-(3,4-Dichlorophenyl)-5-fluoro-N2-(2-methyl-3H-benzimidazol-5-yl)-2,4-pyrimidinediamine], the IC50 is less than 10 µM in series [1] (setting [4]), less than 10 µM in series [1] (setting [5]), greater than 10 µM in series [2] (setting [6]) and less than 10 µM on Syk kinase.

Regarding `Cc1nc2ccc(Nc3ncc(F)c(Nc4ccc5c(c4)NC(=O)C(C)(C)O5)n3)cc2[nH]1` [Compound 810, N4-(2,2-Dimethyl-3-oxo-4H-benz[1,4]oxazin-6-yl)-5-fluoro-N2-(2-methyl-3H-benzimidazol-5-yl)-2,4-pyrimidinediamine], the results for the IC50 in series [1] (setting [4]), in series [1] (setting [5]) and in series [2] (setting [6]) were less than 10 µM, less than 10 µM and greater than 10 µM, respectively. Further, the “% inhibition to vehicle control Edema Size ± SEM” value was 69.5 ± 19.6% in the series with C57BL/6 mice (setting [7]); 60.9 ± 9.6% in the series on C57BL/6 mice (setting [8]); 81.3% and 81.3 ± 8.4% with C57BL/6 mice (setting [9]); 92.1 ± 3.1% in the series with C57BL/6 mice (setting [10]).

Regarding `COc1c(C)cc(Nc2ncc(F)c(Nc3ccc4c(c3)NC(=O)C(C)(C)O4)n2)cc1Cl.Cc1ccc(S(=O)(=O)O)cc1` [Compound 994, N2-(3-Chloro-4-methoxy-5-methylphenyl)-N4-(2,2-dimethyl-3-oxo-4H-benz[1,4]oxazin-6-yl)-5-fluoro-2,4-pyrimidinediamine p-Toluenesulfonic Acid Salt], the IC50 is 0.047 µM in series [1] (CHMC, read-out: in vitro Potency (CHMC IgE)); less than 10 µM in series [1] (low cell density, 3 pt, read-out: LD Tryptase, CHMC, IgE, 3 pt); less than 10 µM in series [1] (low cell density, 8 pt, read-out: LD Tryptase, CHMC, IgE, 8 pt); less than 10 µM in series [2] (low cell density). Besides, the “% inhibition to vehicle control Edema Size ± SEM” value with C57BL/6 mice (100 mg/kg oral, 90 minutes prior to Ab/Ag challenge (pretreatment cell of table empty), C57BL/6 mice) is 75% and 75.0 ± 6.2%.

Take `COc1cc(Nc2ncc(F)c(Nc3ccc4c(n3)NC(=O)C(C)(C)O4)n2)cc(OC)c1OC` [Compound 1007, N4-(2,2-Dimethyl-3-oxo-4H-5-pyrid[1,4]oxazin-6-yl)-5-fluoro-N2-(3,4,5-trimethoxyphenyl)-2,4-pyrimidinediamine]: the “% inhibition to vehicle control Edema Size ± SEM” value with C57BL/6 mice (setting [7]) was 64.3% and 64.3 ± 11.2%; in the series on C57BL/6 mice (setting [8]), 78.7% and 78.7 ± 6.3%; in the series with C57BL/6 mice (setting [9]), 89.4 ± 2.2% and 98.1 ± 0.8%; with C57BL/6 mice (3 mg/kg oral, pretreatment time 0.5 hrs) it was 86.3 ± 7.9%; with C57BL/6 mice (setting [10]), 99.8% and 99.8 ± 0.2%; in the series on C57BL/6 mice (10 mg/kg oral, pretreatment time 0.5 hrs), 97.8 ± 1.1%. Further, the “% inhibition to vehicle control Edema Size ± SEM” value in the series on C57BL/6 mice (30 mg/kg oral, pretreatment time 0.5 hrs) amounted to 88.2 ± 5.7%. Moreover, the “Exposure = Pretreatment Time + 4 hours Plasma Concentration ± SEM” value in series [3] (0.1 mg/kg oral) and in series [3] (0.5 mg/kg oral) was “BLQ” each time.

Consider `COc1c(C)cc(Nc2ncc(F)c(Nc3cccc(NC4=NCCN4)c3)n2)cc1C` [Compound 1093], for which the IC50 in series [1] (low cell density CHMC, tryptase readout, 3 pt, read-out: LD Tryptase, CHMC, IgE, 3 pt) is less than 10 µM; in series [1] (low cell density CHMC, tryptase readout, 8 pt, read-out: LD Tryptase, CHMC, IgE, 8 pt), less than 10 µM; in series [2] (low cell density CHMC, tryptase readout) it was greater than 10 µM; on Syk kinase, less than 10 µM.

As for `Fc1cnc(Nc2cccc(-c3ncco3)c2)nc1Nc1cc(C2CC2)n[nH]1` [Compound 1144, N4-(3-Cyclopropyl-1H-pyrazol-5-yl)-5-fluoro-N2-[3-(oxazol-2-yl)phenyl]-2,4-pyrimidinediamine], the IC50 in series [1] (setting [11]) is less than 10 µM; in series [1] (setting [12]) it was less than 10 µM; in series [2] (setting [13]), greater than 10 µM; at Syk kinase, less than 10 µM.

For `CN1CCN(c2ccc(Nc3ncc(F)c(N(C)C4CCC4)n3)cc2)CC1` [Compound 1147, N4-Cyclobutyl-5-fluoro-N4-methyl-N2-[4-(4-methylpiperazino)phenyl]-2,4-pyrimidinediamine], the IC50 in series [1] (setting [11]) is less than 10 µM; in series [1] (setting [12]) it was less than 10 µM; in series [2] (setting [13]), greater than 10 µM; at Syk kinase, less than 10 µM.

On to `CN1CCN(c2ccc(Nc3ncc(F)c(NC4CCCCC4)n3)cc2)CC1` [Compound 1164, N4-Cyclohexyl-5-fluoro-N2-[4-(4-methylpiperazino)phenyl]-2,4-pyrimidinediamine], for which the IC50 in series [1] (setting [11]) is less than 10 µM; in series [2] (setting [13]), greater than 10 µM; at Syk kinase, less than 10 µM.

For `O=C(Nc1ccc(Nc2ncc(F)c(NC3CCCCC3)n2)cc1)c1ccccc1` [Compound 1174, N2-(4-Benzamidophenyl)-N4-cyclohexyl-5-fluoro-2,4-pyrimidinediamine], the IC50 was greater than 10 µM in series [1] (setting [11]), less than 10 µM in series [1] (setting [12]), greater than 10 µM in series [2] (setting [13]) and less than 10 µM at Syk kinase.
